Like-named read-outs stand apart in the source and are kept apart here. Each block holds one compound with its values, some of them ahead of it.
Legend:
human hepatocytes = test: Intracellular concentration in human hepatocytes in the presence of albumin protein; assay type: in vitro ADME
Description: The observed effects of protein on the intracellular concentration, could lead to an over- or under-prediction of a compound's effect, drastically changing the expected clinical outcome. […] However, the intracellular concentrations never achieved high enough levels to result in hepatotoxic effects. […] Since the effect of protein was unanticipated and not predictable, it is desirable to expose the cell to protein during the experiment.

[1] = cited from earlier work
4% BSA = 4% BSA (Bos taurus, UniProt P02769); test: Free fraction by equilibrium dialysis in 4% BSA; assay type: in vitro ADME; conditions: bovine, DPDPE line: 1 uM
Description: (§5) The free fraction is the amount of compound that is considered thermodynamically free in solution compared to the amount which is considered to be thermodynamically bound to the albumin proteins.

[2] = Free fraction by equilibrium dialysis in serum; assay type: in vitro ADME; conditions: DPDPE line: 1 uM; for fraction unbound: serum
Description: as §5

[3] = system: sandwich-cultured rat hepatocytes; test: Intrinsic biliary clearance in sandwich-cultured rat hepatocytes; conditions: for Observed Cl (ml/min/Kg) BSA: measured in the presence of BSA
Description: Representative calculations that can be employed in accordance with the presently disclosed subject matter include the calculations of a biliary excretion index and a biliary clearance value. […] In some embodiments, the BEI is a calculation of the uptake and excretion of the candidate compound as follows: 100%×{(uptake in the culture with intact bile canaliculi minus uptake within hepatocytes only in the Ca^2+-free culture) divided by (uptake in the culture with intact bile canaliculi)}. In some embodiments, the biliary clearance calculation is performed as follows: (uptake in the culture with intact bile canaliculi minus uptake within hepatocytes only in the Ca^2+-free culture) divided by (time of incubation multiplied by the concentration of the candidate compound in the buffer medium). In some embodiments, a biliary clearance value can be calculated as the ratio of the mass in the bile canaliculi and the area under the curve (AUC) in culture medium, wherein the AUC represents the integral of candidate compound in the medium from time 0 to time T (time can be measure in any desired units, and is usually measured in minutes). Indeed, the term AUC can refer to the following equation: […]
The data for each compound was determined in sandwich-cultured rat hepatocytes at a concentration of 1 μM and an exposure time of 10 minutes in buffer (no protein), in buffer with 4% BSA, or in rat serum.
This latter method is the current industry standard.

Rat Hepatocytes = test: Hepatic intracellular concentration (ICC) in rat hepatocytes, observed vs predicted; assay type: in vitro ADME; conditions: for Observed ICC (uM) BSA: one-step method with BSA
Description: The hepatic intracellular concentration (ICC) of a compound, which reflects the balance of the uptake, metabolism, and efflux out of the cell, can also be determined in the absence and presence of protein.

CYP2C9 = CYP2C9 (Homo sapiens, UniProt P11712)
Protocol: (§1) Sandwich-Cultured Hepatocytes (SCH) were prepared using freshly isolated hepatocytes or cryopreserved hepatocytes. Freshly isolated hepatocytes were plated on 24-well cell culture plates, rinsed and fed with the appropriate species specific Qualyst Transporter Solutions (QTS, Durham, North Carolina, United States of America) propriety culture medium (QualGro™). Cells were maintained in the appropriate species specific medium until consumed in studies.
(§2) Cryopreserved hepatocytes were thawed following manufacturer's thawing instructions. Cryopreserved hepatocytes were subsequently suspended in QTS propriety hepatocyte seeding medium (QualGro™ Seeding Medium) at a density of 0.7-0.8 million viable cells/mL onto BioCoat® 24-well cell culture plates. Following plating, cells were allowed to attach for 2-4 hours, rinsed and fed with warm (37° C.) seeding medium. Eighteen to 24 hours later, cells were fed and overlaid with the appropriate species specific QTS propriety culture medium (QualGro™) supplemented with extracellular matrix (ECM), Matrigel® (0.25 mg/mL). Cells were maintained in QualGro™ Hepatocyte Culture Medium until consumed in studies.
(§3) Cells were cultured as described above through day 6 of culture. On day 7 of culture, spent culture medium was aspirated and replaced with HBSS incubation solution with or without 4% bovine serum albumin (BSA). […] In situ incubations were performed in cell culture incubators (37° C.; 5% CO2; 100% humidity) shaking at 120 rpm for 20-30 minutes. Following the incubation period, incubation solutions were collected and stored at −80° C. until processed for bioanalysis.
(§4) In situ incubations were analyzed for the detection of P450 mediated metabolite formation of hydroxymidazolam from midazolam and hydroxyibuprofen from ibuprofen. Briefly, a volume of 300 μL of internal standard solution (methanol containing 25 nM triazolam and d3-ibuprofen) and a volume of 100 μL of HBSS or HBSS plus 4% BSA were added to a protein precipitation plate (Millipore MDRPNP4; EDM Millipore, Billerica, Massachusetts, United States of America) stacked on a 96 deep well block. The plate was allowed to shake for 1 to 2 minutes prior to centrifugation for collection of the filtered supernatant. The sample filtrate was evaporated to dryness and the samples were reconstituted in 200 μL sample diluent, 40/60 methanol/10 mM ammonium acetate and mixed for at least 20 min on a plate shaker. The reconstituted samples were transferred to a Millipore 0.45 μm filter plate (Millipore MSHVN45) and filtered into a Costar 3957 plate by centrifugation and sealed with a silicone capmat prior to LC-MS/MS analysis.

CYP3A4 = system: CYP3A4
Protocol: as §1, §2, §3, §4

[4] = absence of protein (HBSS), adjusted with free fraction of Table 1, 1 μM
[5] = HBSS value adjusted with free fraction, DPDPE 10 uM

Chain of 4% BSA (P02769 25-607): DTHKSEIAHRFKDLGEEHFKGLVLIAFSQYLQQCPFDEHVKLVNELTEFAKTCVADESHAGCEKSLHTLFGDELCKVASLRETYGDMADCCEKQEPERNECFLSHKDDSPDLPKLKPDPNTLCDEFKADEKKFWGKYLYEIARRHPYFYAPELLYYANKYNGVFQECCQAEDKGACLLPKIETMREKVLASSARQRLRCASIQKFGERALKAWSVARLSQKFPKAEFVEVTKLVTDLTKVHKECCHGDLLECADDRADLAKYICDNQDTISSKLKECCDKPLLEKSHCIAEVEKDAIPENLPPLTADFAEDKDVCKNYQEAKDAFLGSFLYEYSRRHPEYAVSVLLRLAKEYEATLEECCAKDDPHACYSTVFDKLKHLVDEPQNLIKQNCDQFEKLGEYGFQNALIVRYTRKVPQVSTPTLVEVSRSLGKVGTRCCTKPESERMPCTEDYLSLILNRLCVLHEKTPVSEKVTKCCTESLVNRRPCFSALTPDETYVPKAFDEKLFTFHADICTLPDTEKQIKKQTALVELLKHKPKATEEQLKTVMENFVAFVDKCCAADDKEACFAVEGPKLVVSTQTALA
Chain of CYP2C9 (P11712 whole entry): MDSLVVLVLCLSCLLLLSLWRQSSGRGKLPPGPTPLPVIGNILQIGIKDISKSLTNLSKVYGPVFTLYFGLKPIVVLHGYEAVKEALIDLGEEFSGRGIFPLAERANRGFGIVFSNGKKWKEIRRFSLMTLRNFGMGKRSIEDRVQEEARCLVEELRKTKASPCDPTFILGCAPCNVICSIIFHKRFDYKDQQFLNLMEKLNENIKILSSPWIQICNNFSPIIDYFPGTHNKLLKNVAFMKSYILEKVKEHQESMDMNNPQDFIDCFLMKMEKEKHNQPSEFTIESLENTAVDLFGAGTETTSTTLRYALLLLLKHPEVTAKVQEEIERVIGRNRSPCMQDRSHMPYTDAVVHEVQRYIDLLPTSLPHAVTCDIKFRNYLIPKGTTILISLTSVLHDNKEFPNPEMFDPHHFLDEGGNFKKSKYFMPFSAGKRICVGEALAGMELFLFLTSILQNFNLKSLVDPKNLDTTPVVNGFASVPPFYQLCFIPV

SMILES: CCCc1nc2c(C)cc(-c3nc4ccccc4n3C)cc2n1Cc1ccc(-c2ccccc2C(=O)O)cc1 [telmisartan]
Intracellular concentration in presence of protein greater than predicted from protein-free data adjusted by free fraction (human hepatocytes): 100 ×
Toxicity associated with its use (in vivo data) [1]: no known toxicity

SMILES: CN(Cc1cnc2nc(N)nc(N)c2n1)c1ccc(C(=O)N[C@@H](CCC(=O)O)C(=O)O)cc1 [Methotrexate]
fraction unbound (4% BSA): 0.428
fraction unbound [2]: 0.499
Intrinsic Biliary Clearance, BSA [3]: 0.19 mL/min/kg
Intrinsic Biliary Clearance, No Protein ([3]; rat): 0.54 mL/min/kg
Predicted Cl (ml/min/Kg) HBSS ([3]; rat, 10 min, 1 μM): 0.23 mL/min/kg
Intrinsic Biliary Clearance, Serum ([3]; rat): 0.91
Predicted ICC (uM) HBSS (Rat Hepatocytes; [4]): 0.48 µM
Observed ICC (uM) BSA (Rat Hepatocytes; 1 μM): 0.47 µM

SMILES: CC1(C)SSC(C)(C)[C@@H](NC(=O)[C@@H](N)Cc2ccc(O)cc2)C(=O)NCC(=O)N[C@@H](Cc2ccccc2)C(=O)N[C@H]1C(=O)O [DPDPE]
Predicted Cl (ml/min/Kg) HBSS [3, 5]: 4.24 mL/min/kg
Predicted Cl (ml/min/Kg) HBSS ([3]; measured in absence of protein (HBSS), adjusted with free fraction of Table 1, 1 μM): 5.69 mL/min/kg
Observed Cl (ml/min/Kg) BSA ([3]; 1 μM): 2.51 mL/min/kg
Observed Cl (ml/min/Kg) BSA ([3]; DPDPE 10 uM): 3.32 mL/min/kg
Predicted biliary clearance compared with observed biliary clearance ([3]; two-step prediction vs measurement with BSA, DPDPE at 1 μM): over-estimated
Predicted ICC (uM) HBSS (Rat Hepatocytes; [5]): 13.63 µM
Predicted ICC (uM) HBSS (Rat Hepatocytes; [4]): 1.42 µM
Observed ICC (uM) BSA (Rat Hepatocytes; 1 μM): 1.98 µM
Observed ICC (uM) BSA (Rat Hepatocytes; DPDPE 10 uM): 15.51 µM

SMILES: OC(Cn1cncn1)(Cn1cncn1)c1ccc(F)cc1F [Fluconazole]
CYP2C9 enzyme activity reduced to % of control (CYP2C9): 24.4-45.1 % of control

SMILES: C[C@H]1O[C@@H](O[C@H]2[C@@H](O)C[C@H](O[C@H]3[C@@H](O)C[C@H](O[C@H]4CC[C@@]5(C)[C@H](CC[C@@H]6[C@@H]5C[C@@H](O)[C@]5(C)[C@@H](C7=CC(=O)OC7)CC[C@]65O)C4)O[C@@H]3C)O[C@@H]2C)C[C@H](O)[C@@H]1O [Digoxin]
fraction unbound (4% BSA): 0.852
Free Fraction in Serum [2]: 0.727
Intrinsic Biliary Clearance, BSA [3]: 9.25 mL/min/kg
Intrinsic Biliary Clearance, No Protein ([3]; rat): 10.4 mL/min/kg
Predicted Cl (ml/min/Kg) HBSS ([3]; rat, 10 min, 1 μM): 8.85 mL/min/kg
Intrinsic Biliary Clearance, Serum ([3]; rat): 5.12
Predicted ICC (uM) HBSS (Rat Hepatocytes; [4]): 1.59 µM
Observed ICC (uM) BSA (Rat Hepatocytes; 1 μM): 1.29 µM

SMILES: CC(=O)N1CCN(c2ccc(OCC3COC(Cn4ccnc4)(c4ccc(Cl)cc4Cl)O3)cc2)CC1 (stereo not drawn) [Ketoconazole]
CYP3A4/5 Mean % Remaining (CYP3A4; 4% BSA, inhibitor 0.0500 μM): 54.6%
CYP3A4/5 Mean % Remaining (CYP3A4; 4% BSA, inhibitor 0.250 μM): 40.8%
CYP3A4/5 Mean % Remaining (CYP3A4; No BSA, inhibitor 0.050 μM): 45.1%
CYP3A4/5 Mean % Remaining (CYP3A4; No BSA, inhibitor 0.250 μM): 24.4%

Second part, the compound after the results:

fraction unbound (4% BSA): 0.136
Intrinsic Biliary Clearance, BSA [3]: 164 mL/min/kg
Predicted biliary clearance compared with observed biliary clearance [3]: under-estimated by a significant amount
Intrinsic Biliary Clearance, No Protein ([3]; rat): 53.1 mL/min/kg
Predicted Cl (ml/min/Kg) HBSS ([3]; rat, 10 min, 1 μM): 7.22 mL/min/kg
Predicted ICC (uM) HBSS (Rat Hepatocytes; [4]): 3.09 µM
Observed ICC (uM) BSA (Rat Hepatocytes; 1 μM): 6.81 µM
SMILES: CC(C)c1nc(N(C)S(C)(=O)=O)nc(-c2ccc(F)cc2)c1/C=C/[C@@H](O)C[C@@H](O)CC(=O)O [Rosuvastatin]

fraction unbound (4% BSA): 0.075
fraction unbound [2]: 0.004
Intrinsic Biliary Clearance, BSA [3]: 3.06 mL/min/kg
Intrinsic Biliary Clearance, No Protein ([3]; rat): 4.73 mL/min/kg
Predicted Cl (ml/min/Kg) HBSS ([3]; rat, 10 min, 1 μM): 0.36 mL/min/kg
Intrinsic Biliary Clearance, Serum ([3]; rat): 1.39
Predicted ICC (uM) HBSS (Rat Hepatocytes; [4]): 0.44 µM
Observed ICC (uM) BSA (Rat Hepatocytes; 1 μM): 0.22 µM
SMILES: CCCCC(=O)N(Cc1ccc(-c2ccccc2-c2nnn[nH]2)cc1)[C@H](C(=O)O)C(C)C [Valsartan]

fraction unbound (4% BSA): 0.047
fraction unbound [2]: 0.004
Intrinsic Biliary Clearance, BSA [3]: 140 mL/min/kg
Predicted biliary clearance compared with observed biliary clearance [3]: under-estimated by a significant amount
Intrinsic Biliary Clearance, No Protein ([3]; rat): 52 mL/min/kg
Predicted Cl (ml/min/Kg) HBSS ([3]; rat, 10 min, 1 μM): 2.44 mL/min/kg
Intrinsic Biliary Clearance, Serum ([3]; rat): 277.50
SMILES: O=C(O)C[C@H](O)C[C@H](O)/C=C/c1c(C2CC2)nc2ccccc2c1-c1ccc(F)cc1 [Pitavastatin]

fraction unbound (4% BSA): 0.734
fraction unbound [2]: 0.554
Intrinsic Biliary Clearance, BSA [3]: 6.47 mL/min/kg
Intrinsic Biliary Clearance, No Protein ([3]; rat): 7.35 mL/min/kg
Predicted Cl (ml/min/Kg) HBSS ([3]; rat, 10 min, 1 μM): 5.39 mL/min/kg
Intrinsic Biliary Clearance, Serum ([3]; rat): 2.06
SMILES: CC[C@H](C)C(=O)O[C@H]1C[C@H](O)C=C2C=C[C@H](C)[C@H](CC[C@@H](O)C[C@@H](O)CC(=O)O)[C@H]21 [Pravastatin]

From patent US12650422B2, “Utility of protein in the prediction of in vivo effects” (Qualyst Transporter Solutions, LLC, priority 2014, dated 2026)
